The target of the experiment is T1, NS3 (West Nile virus, UniProt K4FQI5).
T1 sequence (K4FQI5 whole entry): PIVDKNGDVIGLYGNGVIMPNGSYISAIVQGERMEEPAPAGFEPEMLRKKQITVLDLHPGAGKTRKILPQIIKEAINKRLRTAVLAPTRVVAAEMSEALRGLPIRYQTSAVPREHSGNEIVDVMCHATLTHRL
Briefly: Functional biochemical assay to identify treatments for viral infectious disease that targets West Nile NS2B-NS3 protease. Utilizing a direct enzyme activity measurement method, reading the fluorescence intensity is used to characterize the relative potency of inhibitors as IC50. More on the design: species or system NY-99.
What is called IC50 is the concentration at which inhibition is half-maximal. In turn, `COc1ccc(S(=O)(=O)n2nc(OC(=O)c3cccc(-c4ccccc4Cl)c3)cc2N)cc1` displayed a half-maximal inhibitory concentration (IC50) of 1.09 µM. For `COc1cc(Br)cc(C(=O)Nc2ccc3c(c2)CNC3)c1`, it took 92.7 µM to reach half-maximal inhibition (IC50). `O=C(NC[C@H]1CCCO1)[C@H](Nc1ccc2c(c1)CNC2)c1cc(Cl)cc2[nH]ncc12` registered an IC50 of 1.16 µM. Turning to `Cc1cc(C(=O)Nc2ccc3c(c2)CNC3)c2cn[nH]c2c1`, it took 9.64 µM to reach half-maximal inhibition (IC50). `O=C(Nc1ccc2c(c1)CNC2)c1cc(Cl)cc(-n2cccc2)c1`: the IC50 amounted to 12.9 µM.

For the compound `Cc1cc(CN)cc(NC(=O)c2cc(Cl)cc3[nH]ncc23)c1`, half-maximal inhibition (IC50) required 22.6 µM.

Regarding `N#Cc1cc(Cl)cc(C(=O)Nc2ccc3c(c2)CNC3)c1`, the IC50 was 54.9 µM. The result for `Cc1ccc(S(=O)(=O)CNC(=O)[C@H](Nc2ccc3c(c2)CNC3)c2cc(Cl)cc3[nH]ncc23)cc1` reads 11.7 µM; that for `O=C(Nc1ccc2c(c1)CNC2)c1cc(Cl)cc(C2CC2)c1`, 25.5 µM; that for `Nc1cc(Cl)cc(C(=O)Nc2ccc3c(c2)CNC3)c1N`, 33.3 µM. The compound `N#CCCNC(=O)[C@H](Nc1ccc2c(c1)CNC2)c1cc(Cl)cc(C2CC2)c1` yielded a half-maximal inhibitory concentration (IC50) of 0.43 µM. Under `O=C(Nc1ccc2c(c1)CNC2)c1cc(Br)cc2[nH]c([C@H]3CCOC3)nc12` stands 92.3 µM; under `O=C(Nc1ccc2c(c1)CNC2)c1cc(Cl)ccc1SC1CCCC1`, more than 99.5 µM; under `O=C(Nc1ccc2c(c1)CNCCC2)c1cc(Cl)cc2[nH]ncc12`, 3.25 µM. The result for `O=C(Nc1ccc2c(c1)CNC2)c1cc(F)cc2[nH]nnc12` reads 5.06 µM; that for `N#Cc1cc(Cl)cc([C@H](C#N)Nc2ccc3c(c2)CNC3)c1`, 98.5 µM; that for `O=C(Nc1ccc2c(c1)CNC2)c1cc(Br)cc2[nH]c(C3CCOCC3)nc12`, more than 99.5 µM. The result for `O=C(Nc1ccc2c(c1)CNC2)c1cccc2[nH]ncc12` reads 4.33 µM; that for `CCc1cc(Cl)cc(C(=O)Nc2ccc3c(c2)CNC3)c1`, more than 99.5 µM; that for `Cc1ccc2cc(Cl)cc(C(=O)Nc3ccc4c(c3)CNC4)c2n1`, more than 99.5 µM. In turn, `CNC(=O)[C@H](Nc1ccc2c(c1)CNC2)c1cc(Cl)cc2[nH]ncc12` displayed a 50% inhibitory concentration (IC50) of 0.677 µM. The result for `O=C(Nc1ccc2c(c1)CNC2)c1cc(Br)cc2c1OCO2` reads more than 99.5 µM. Take `O=C(Nc1cnc2c(c1)CNCC2)c1cc(Cl)cc2[nH]ncc12`: the IC50 turned out to be 26.5 µM. Under `NCCc1cccc(NC(=O)c2cc(Cl)cc3[nH]ncc23)c1` stands 94.5 µM; under `O=C(Nc1ccc2c(c1)CCNCC2)c1cc(Cl)cc2[nH]ncc12`, 48.5 µM. The result for `O=C(Nc1ccc2c(c1)CNCCO2)c1cc(Cl)cc2[nH]ncc12` reads 19.6 µM; that for `O=C(Nc1ccc2c(c1)CNC2)c1cc(Br)cc2[nH]ncc12`, 12.9 µM; that for `O=C(NC[C@H]1CCCO1)[C@H](Nc1ccc2c(c1)CNC2)c1cc(Cl)cc(C2CC2)c1`, 0.498 µM. Under `O=C(Nc1ccc2c(n1)CNC2)c1cc(Cl)cc2[nH]ncc12` stands 35.2 µM; under `COC(=O)CNC(=O)[C@H](Nc1ccc2c(c1)CNC2)c1cc(Cl)cc(C2CC2)c1`, 0.897 µM; under `CC(=O)Nc1cc(Br)cc(C(=O)Nc2ccc3c(c2)CNC3)c1`, 31.5 µM.

`Cn1ncc2c(C(=O)Nc3ccc4c(c3)CNC4)cc(Br)cc21` registered a half-maximal inhibitory concentration (IC50) of 47.2 µM. Under `CCc1nc2c(C(=O)Nc3ccc4c(c3)CNC4)cc(Br)cc2[nH]1` stands 55.9 µM. The compound `O=C(NCC1CCOCC1)[C@H](Nc1ccc2c(c1)CNC2)c1cc(Cl)cc2[nH]ncc12` registered an IC50 of 2.28 µM. Under `O=C(NCc1ccc(F)cc1)[C@H](Nc1ccc2c(c1)CNC2)c1cc(Cl)cc2[nH]ncc12` stands 1.08 µM; under `N[C@H]1Cc2ccc(NC(=O)c3cc(Cl)cc4[nH]ncc34)cc2C1`, 51.6 µM; under `N#Cc1cc(C(=O)Nc2ccc3c(c2)CNC3)cc(C(F)(F)F)c1`, 98.1 µM. Under `CC(C)c1nc2c(C(=O)Nc3ccc4c(c3)CNC4)cc(Br)cc2[nH]1` stands more than 99.5 µM. The result for `Cc1ncc(-c2cc(F)cc(C(=O)Nc3ccc4c(c3)CNC4)c2)o1` reads 6.67 µM; that for `O=C(Nc1ccc2c(c1)CNC2)c1cc(F)cc(-c2cn[nH]c2)c1`, 0.691 µM; that for `O=C(Nc1ccc2c(c1)CNC2)c1cc(Cl)cc2[nH]c(-c3ccnn3C3CC3)nc12`, 18.6 µM. `Nc1noc2cccc(C(=O)Nc3ccc4c(c3)CNC4)c12`: the IC50 turned out to be 76.8 µM. The result for `O=C(Nc1ccc2c(c1)CNC2)c1cc(Cl)cc2[nH]c(-c3nc4c(s3)CCC4)nc12` reads 40.3 µM. Under `O=C(NCCCn1ccnc1)[C@H](Nc1ccc2c(c1)CNC2)c1cc(Cl)cc(C2CC2)c1` stands 0.839 µM; under `O=C(Nc1ccc2c(c1)CNC2)c1cc(Cl)ccc1-n1cncn1`, 42.7 µM; under `O=C(Nc1ccc2c(c1)CNC2)c1cc(Cl)cc2nn(C3CCOCC3)cc12`, 14 µM. The compound `O=C(Nc1ccc2c(c1)CNC2)c1cc(F)cc2[nH]cnc12` came in with an IC50 of 13.5 µM.

For the compound `O=C(Nc1ccc2c(c1)CNC2)c1cccc2ccncc12`, the IC50 worked out at 11.4 µM. Under `CC(C)c1nn(C)cc1-c1cc(F)cc(C(=O)Nc2ccc3c(c2)CNC3)c1` stands 11.9 µM; under `NCCc1cc(Cl)cc(C(=O)Nc2cccc(CN)c2)c1`, 5.52 µM; under `O=C(Nc1ccc2c(c1)CNC2)c1cc(Br)cc2[nH]c([C@H]3CCCO3)nc12`, more than 99.5 µM. The result for `CN(C)c1nc(-c2cc(F)cc(C(=O)Nc3ccc4c(c3)CNC4)c2)cs1` reads 12.6 µM; that for `CCc1ccc(-c2nc3c(C(=O)Nc4ccc5c(c4)CNC5)cc(Cl)cc3[nH]2)cc1`, 32 µM; that for `CCNC(=O)Nc1cc(Cl)cc(C(=O)Nc2cc(C)cc(CN)c2)c1`, 19.8 µM. Regarding `O=C(NCCOCC1CC1)[C@H](Nc1ccc2c(c1)CNC2)c1cc(Cl)cc(C2CC2)c1`, the midpoint of inhibition, the IC50, lay at 0.366 µM. The result for `CC(C)(C)c1nc2c(C(=O)Nc3ccc4c(c3)CNC4)cc(Br)cc2[nH]1` reads more than 99.5 µM. Under `CCSc1ccc(Cl)cc1C(=O)Nc1ccc2c(c1)CNC2` stands 81.6 µM. Regarding `CNC(=O)c1cccc(C(=O)Nc2ccc3c(c2)CNC3)c1`, the IC50 was 36.8 µM.

`CCCCNC(=O)[C@H](Nc1ccc2c(c1)CNC2)c1cc(Cl)cc(C2CC2)c1`: the IC50 came out at 0.295 µM. Under `CCOCC1(c2nc3c(C(=O)Nc4ccc5c(c4)CNC5)cc(Cl)cc3[nH]2)CC1` stands more than 99.5 µM. The result for `O=C(Nc1ccc2c(c1)CNC2)c1cc(F)cc(-c2cccnc2)c1` reads 2.68 µM; that for `O=C(Nc1ccc2c(c1)CNC2)c1cccc2c1[C@]1(CCNC1)C(=O)N2`, 1.62 µM; that for `O=C(Nc1ccc2c(c1)CNC2)c1cccc2[nH]ccc12`, 8.63 µM. The result for `C=Cc1cc2c(cc1NC(=O)c1cc(F)cc3[nH]ncc13)CNC2` reads 0.489 µM; that for `CCOC(=O)c1ncoc1CNC(=O)[C@H](Nc1ccc2c(c1)CNC2)c1cc(Cl)cc(C2CC2)c1`, 3.04 µM.

On to `O=C(Nc1cc2c(cc1C1CC1)CNC2)c1cc(F)cc2[nH]ncc12`, for which the midpoint of inhibition, the IC50, lay at 0.832 µM. `O=C(Nc1ccc2c(c1)CNC2)c1cccc2sccc12` yielded a half-inhibitory concentration (IC50) of 13.8 µM.

Compound `O=C(Nc1ccc2c(c1)CNC2)c1cncc2[nH]ncc12` came in with an IC50 of 20.8 µM. The result for `CCNC(=O)Nc1cc(Cl)cc(C(=O)Nc2cccc(CN)c2)c1` reads 21.6 µM; that for `NCc1cccc(NC(=O)c2cc(Cl)cc3[nH]ncc23)c1`, 35.8 µM; that for `O=C(Nc1ccc2c(c1)CNC2)c1cc(Cl)cc2[nH]c(CCc3cccnc3)nc12`, 87.1 µM. Under `O=C(Nc1ccc2c(c1)CNC2)c1cc(Cl)cc2[nH]c(-c3ncnn3C3CC3)nc12` stands 87.2 µM; under `CC(C)CNC(=O)[C@H](Nc1ccc2c(c1)CNC2)c1cc(Cl)cc2[nH]ncc12`, 0.643 µM.

As to `O=C(Nc1ccc2c(c1)CNC2)c1cc(Cl)cc2nn(C3CCC3)cc12`, the IC50 came to 14.7 µM.

`COCc1cc(Cl)cc(C(=O)Nc2ccc3c(c2)CNC3)c1` registered a half-maximal inhibitory concentration (IC50) of 73.2 µM.

As for `CCc1cnccc1-c1nc2c(C(=O)Nc3ccc4c(c3)CNC4)cc(Cl)cc2[nH]1`, the half-inhibitory concentration (IC50) was more than 99.5 µM. As for `Cn1cc2c(C(=O)Nc3ccc4c(c3)CNC4)cc(Cl)cc2n1`, the IC50 was determined as 15.1 µM. The result for `CN(C)C(=O)CCCc1nc2c(C(=O)Nc3ccc4c(c3)CNC4)cc(Cl)cc2[nH]1` reads more than 99.5 µM; that for `O=C(Nc1ccc2c(c1)CNC2)c1cc(Cl)cc(N2CCCC2=O)c1`, 24.8 µM; that for `COc1cc(Cl)cc(C(=O)Nc2ccc3c(c2)CNC3)c1`, 40.7 µM. Under `CCCNC(=O)[C@H](Nc1ccc2c(c1)CNC2)c1cc(Cl)cc2[nH]ncc12` stands 0.356 µM; under `COCCCNC(=O)[C@H](Nc1ccc2c(c1)CNC2)c1cc(Cl)cc(C2CC2)c1`, 0.583 µM. The result for `O=C(NCc1cccnc1)[C@H](Nc1ccc2c(c1)CNC2)c1cc(Cl)cc2[nH]ncc12` reads 1.37 µM. Regarding `O=C(Nc1ccc2c(c1)CN[C@H]2C[C@H](O)CO)c1cc(Cl)cc2[nH]ncc12`, 5.56 µM corresponded to half-maximal inhibition (IC50). The result for `O=C1Cc2c(cccc2C(=O)Nc2ccc3c(c2)CNCCC3)N1` reads 2.15 µM; that for `O=C(Nc1ccc2c(c1)CNC2)c1cc(Cl)cc2[nH]c(C3(n4ccnn4)CC3)nc12`, more than 99.5 µM. The result for `O=C(Nc1ccc2c(c1)CNC2)c1cccc2cn[nH]c12` reads 9.75 µM; that for `C=C[C@H]1NCc2cc(NC(=O)c3cc(F)cc4[nH]ncc34)ccc21`, 3.07 µM; that for `C#Cc1cc(Cl)cc(C(=O)Nc2ccc3c(c2)CNC3)c1`, 58.6 µM. Under `O=C(Nc1ccc2c(c1)CNC2)c1cc(Cl)cc2ccccc12` stands 14.7 µM.

Turning to `O=C(Nc1ccc2c(c1)CNC2)c1cc(Cl)cc2c1NCCC2`, the 50% inhibitory concentration (IC50) was more than 99.5 µM. The result for `O=C(Nc1ccc2c(c1)CNC2)c1cc(Cl)cc(N2CCCC2)c1` reads 42.8 µM; that for `CC(=O)Nc1cccc(C(=O)Nc2ccc3c(c2)CNC3)c1`, 30.6 µM.

Source of the values: ChEMBL document CHEMBL5604061, “ASAP - WNV NS2B-NS3 protease fluorescence dose response” (2024).
